Laboratory results from patent US8487137B2, “Photochemical crosslinkers for polymer coatings and substrate tie-layer” (Innovative Surface Technologies, LLC, priority 2005, dated 2013).

What was measured:
[1] = Solubility of crosslinker in common solvents and water; format: physicochemical; settings: chloroform, methylene chloride, acetone, ethyl acetate, isopropanol, etc.
Excerpt: The peaks at d 7.78 ppm (m, 12H), 7.46 ppm (m, 9H), 6.98 ppm (m, 6H) were the typical signals from 4-substituted benzophenone. The peak at d 4.35 ppm (m, 6H) was assigned to the protons of methylene connected to phenoxy group. The peak at d 4.13 ppm (m, 9H) was a combination of 6 protons of 3 methylene groups connected to nitrogen atom and 3 protons from 3 methine groups. The peak at d 3.00 ppm (s, 3H) corresponded to hydroxyl groups.
The peaks at 7.49˜7.79 ppm (m, 18H) were the typical signals from 4-substituted benzophenone. The peak at 4.66 ppm (s, 4H) was assigned to the protons of methylene connected to benzophenone group. The peak at 3.70 ppm (m, 16H) corresponded to ethylene groups.
The peaks at 7.26˜7.79 ppm (m, 18H) were the typical signals from 4-substituted benzophenone. The peak at 4.64 ppm (s, 4H) was assigned to the protons of methylene connected to benzophenone group. The peak at 3.66 ppm (m, 24H) corresponded to ethylene groups.

[2] = Static contact angle with water on coated PVC coverslips (goniometer); format: physicochemical
Procedure: A coating solution was made up from the crude glycol linker product isolated in Example 3 (0.5 mg/ml glycol in isopropanol with 50 mg/ml polyvinylpyrrolidone (Kollidon K30, BASF, N.J.)). 100 μl of the coating solution was applied to PVC coverslips (Fisher Scientific, Pittsburgh, Pa.) and allowed to dry overnight. All pieces were illuminated for a set time in a uv crosslinker (UVP CL-1000, Upland, Calif., 254 nm light, 120,000 μJ/cm^2) from 0 to 10 minutes. Pieces were then rinsed for 30 minutes in deionized water with gentle agitation. The static contact angle with water was taken on a goniometer (MicroVu 400, Santa Ana, Calif.), three 3 μl drops of water were measured, three times apiece. Contact angles are shown below.
A coating solution of purified triazine crosslinker isolated in Example 1 was made by adding 44 mg of crosslinker to 1 ml of acetone, diluted with 19 ml of isopropanol, then adding 1000 mg of poly(vinylpyrrolidone) (PVP) (Kollidon K30, BASF, N.J.). The resulting solution was thoroughly mixed on an orbital shaker for four hours. 18 samples were prepared by adding 100, 200, or 500 μl of coating solution onto PVC Coverslips (Fisher Scientific, Pittsburgh, Pa.) (n=6 for each condition), then air drying. The sample pieces were illuminated for five minutes in a uv chamber (UVP CL-1000, Upland, Calif., 254 nm light, 120,000 μJ/cm^2), then rinsed for four hours in deionized water with gentle agitation. 4 pieces of each variable were then stained with Congo red dye to determine the presence of PVP. For each coating condition, two of the four stained pieces were then rubbed with a wet glove to determine durability of the coating to simple rubbing. The remaining two unstained sample pieces for each coating condition were then assessed for static contact angle by threefold measurement of three 3 μl drops of water on a goniometer (MicroVu 400, Santa Ana, Calif.).

SMILES: O=C(c1ccccc1)c1ccc(OCC(O)Cn2c(=O)n(CC(O)COc3ccc(C(=O)c4ccccc4)cc3)c(=O)n(CC(O)COc3ccc(C(=O)c4ccccc4)cc3)c2=O)cc1 (stereo not shown) [Example 1]
- solubility in most common solvents [1]: soluble in most common solvents
- Contact angle (rinse only) ([2]; triazine crosslinker/PVP K30, Coating 100 ml): 35.3 ± 3.4
- Contact angle (rinse only) ([2]; triazine crosslinker/PVP K30, Coating 200 ml): 38.7 ± 2.6
- Contact angle (rinse only) ([2]; triazine crosslinker/PVP K30, Coating 500 ml): 29.2 ± 2.2
